Several values for one entry are separate records, joined by “and”; a condition that tells them apart may be missing. Equal entries are not always repeated. Toxic doses and inconclusive results are not listed. The calls were made as follows: active = survival T/C of 150% or more; inactive = T/C below 125% in these data.
System: BDF1 mice, L1210 leukemia sc, survival T/C
Assay: NCI In Vivo Anticancer Drug Screen. Data for tumor model L1210 Leukemia (subcutaneous) in B6D2F1 (BDF1) mice
Conditions: endpoint: median survival time, higher = longer survival
How it was run: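 Transplantable tumor-bearing mice; survival or tumor size recorded; result = T/C, treated vs vehicle control.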

Measured: T/C

Nc1cc(C(=O)Nc2ccc(C3=NCCN3)cc2)ccc1C(=O)Nc1ccc(C2=NCCN2)cc1
inactive: dose: 1.0 mg/kg/injection, schedule: Q01DX Z (iv), vehicle: water 100 % of control | dose: 2.0 mg/kg/injection, schedule: Q01DX Z (iv), vehicle: water 100 % of control | dose: 2.0 mg/kg/injection, schedule: Q01DX Z (sc), vehicle: water 110 % of control | dose: 4.0 mg/kg/injection, schedule: Q01DX Z (iv), vehicle: water 120 % of control
active: dose: 4.0 mg/kg/injection, schedule: Q01DX Z (sc), vehicle: water 215 % of control | dose: 8.0 mg/kg/injection, schedule: Q01DX Z (iv), vehicle: water 215 % of control | dose: 8.0 mg/kg/injection, schedule: Q01DX Z (sc), vehicle: water 230 % of control | dose: 16.0 mg/kg/injection, schedule: Q01DX Z (iv), vehicle: water 215 % of control | dose: 16.0 mg/kg/injection, schedule: Q01DX Z (sc), vehicle: water 245 % of control | dose: 32.0 mg/kg/injection, schedule: Q01DX Z (sc), vehicle: water 195 % of control

COc1ccc(/C=N/NC(N)=S)cc1
inactive: dose: 39.0 mg/kg/injection, schedule: Q01DX Z (sc), vehicle: methylcellulose (MC) 95 % of control | dose: 39.0 mg/kg/injection, schedule: Q01DX Z (sc), vehicle: water 100 % of control | dose: 65.0 mg/kg/injection, schedule: Q01DX Z (sc), vehicle: methylcellulose (MC) 100 % of control | dose: 65.0 mg/kg/injection, schedule: Q01DX Z (sc), vehicle: water 100 % of control | dose: 108.0 mg/kg/injection, schedule: Q01DX Z (sc), vehicle: methylcellulose (MC) 100 % of control | dose: 108.0 mg/kg/injection, schedule: Q01DX Z (sc), vehicle: water 100 % of control | dose: 180.0 mg/kg/injection, schedule: Q01DX Z (sc), vehicle: methylcellulose (MC) 95 % of control | dose: 180.0 mg/kg/injection, schedule: Q01DX Z (sc), vehicle: water 100 % of control | dose: 216.0 mg/kg/injection, schedule: Q01DX Z (sc), vehicle: water 100 % of control | dose: 300.0 mg/kg/injection, schedule: Q01DX Z (sc), vehicle: methylcellulose (MC) 100 % of control | dose: 300.0 mg/kg/injection, schedule: Q01DX Z (sc), vehicle: water 100 % of control | dose: 360.0 mg/kg/injection, schedule: Q01DX Z (sc), vehicle: water 111 % of control | dose: 500.0 mg/kg/injection, schedule: Q01DX Z (sc), vehicle: methylcellulose (MC) 100 % of control | dose: 500.0 mg/kg/injection, schedule: Q01DX Z (sc), vehicle: water 100 % of control | dose: 600.0 mg/kg/injection, schedule: Q01DX Z (sc), vehicle: water 105 % of control | dose: 1000.0 mg/kg/injection, schedule: Q01DX Z (sc), vehicle: water 111 % of control

CC[C@](O)(C(=O)O)c1cc2n(c(=O)c1CO)Cc1cc3ccccc3nc1-2
inactive: dose: 0.5 mg/kg/injection, schedule: Q01DX009 (ip), vehicle: saline 104 % of control | dose: 0.5 mg/kg/injection, schedule: Q01DX009 (sc), vehicle: saline 104 % of control | dose: 1.0 mg/kg/injection, schedule: Q01DX009 (ip), vehicle: saline 102 % of control | dose: 1.0 mg/kg/injection, schedule: Q01DX009 (sc), vehicle: saline 104 % of control | dose: 2.0 mg/kg/injection, schedule: Q01DX009 (ip), vehicle: saline 116 % of control | dose: 2.0 mg/kg/injection, schedule: Q01DX009 (sc), vehicle: saline 110 % of control | dose: 6.25 mg/kg/injection, schedule: Q02DX005 (sc), vehicle: saline 115 % of control and 120 % of control | dose: 6.25 mg/kg/injection, schedule: Q04DX003 (sc), vehicle: saline 115 % of control and 116 % of control | dose: 8.4 mg/kg/injection, schedule: Q04DX003 (sc), vehicle: saline 122 % of control and 123 % of control | dose: 14.0 mg/kg/injection, schedule: Q07DX003 (sc), vehicle: saline 115 % of control and 122 % of control | dose: 18.0 mg/kg/injection, schedule: Q04DX003 (sc), vehicle: saline 118 % of control and 120 % of control | dose: 18.0 mg/kg/injection, schedule: Q07DX003 (sc), vehicle: saline 118 % of control and 120 % of control | dose: 20.0 mg/kg/injection, schedule: Q07DX003 (sc), vehicle: saline 120 % of control and 121 % of control | dose: 23.0 mg/kg/injection, schedule: Q07DX003 (sc), vehicle: saline 120 % of control and 122 % of control | dose: 30.0 mg/kg/injection, schedule: Q04DX003 (sc), vehicle: saline 120 % of control | dose: 30.0 mg/kg/injection, schedule: Q07DX003 (sc), vehicle: saline 120 % of control and 121 % of control | dose: 39.0 mg/kg/injection, schedule: Q07DX003 (sc), vehicle: saline 120 % of control and 122 % of control | dose: 39.0 mg/kg/injection, schedule: Q09DX003 (sc), vehicle: saline 116 % of control and 117 % of control | dose: 50.0 mg/kg/injection, schedule: Q01DX001 (sc), vehicle: saline 118 % of control and 120 % of control | dose: 65.0 mg/kg/injection, schedule: Q07DX003 (sc), vehicle: saline 121 % of control and 122 % of control | dose: 65.0 mg/kg/injection, schedule: Q09DX003 (sc), vehicle: saline 122 % of control | dose: 80.0 mg/kg/injection, schedule: Q04DX003 (sc), vehicle: saline 115 % of control and 118 % of control | dose: 80.0 mg/kg/injection, schedule: Q07DX003 (sc), vehicle: saline 120 % of control and 123 % of control | dose: 83.3 mg/kg/injection, schedule: Q01DX001 (sc), vehicle: saline 120 % of control and 121 % of control | dose: 98.0 mg/kg/injection, schedule: Q07DX003 (sc), vehicle: saline 118 % of control and 120 % of control | dose: 108.0 mg/kg/injection, schedule: Q07DX003 (sc), vehicle: saline 120 % of control and 122 % of control | dose: 108.0 mg/kg/injection, schedule: Q09DX003 (sc), vehicle: saline 122 % of control | dose: 122.0 mg/kg/injection, schedule: Q07DX003 (sc), vehicle: saline 118 % of control and 120 % of control | dose: 148.0 mg/kg/injection, schedule: Q01DX001 (sc), vehicle: saline 110 % of control | dose: 160.0 mg/kg/injection, schedule: Q04DX003 (sc), vehicle: saline 90 % of control and 93 % of control | dose: 160.0 mg/kg/injection, schedule: Q07DX003 (sc), vehicle: saline 110 % of control and 122 % of control | dose: 180.0 mg/kg/injection, schedule: Q09DX003 (sc), vehicle: saline 116 % of control and 118 % of control | dose: 246.0 mg/kg/injection, schedule: Q01DX001 (sc), vehicle: saline 110 % of control | dose: 300.0 mg/kg/injection, schedule: Q09DX003 (sc), vehicle: saline 100 % of control and 101 % of control | dose: 320.0 mg/kg/injection, schedule: Q07DX003 (sc), vehicle: saline 90 % of control | dose: 468.0 mg/kg/injection, schedule: Q07DX003 (sc), vehicle: saline 120 % of control and 121 % of control | dose: 731.0 mg/kg/injection, schedule: Q07DX003 (sc), vehicle: saline 90 % of control and 93 % of control | dose: 800.0 mg/kg/injection, schedule: Q07DX003 (sc), vehicle: saline 88 % of control
active: dose: 12.5 mg/kg/injection, schedule: Q02DX005 (sc), vehicle: saline 156 % of control | dose: 25.0 mg/kg/injection, schedule: Q02DX005 (sc), vehicle: saline 165 % of control and 170 % of control | dose: 25.0 mg/kg/injection, schedule: Q07DX003 (sc), vehicle: saline 150 % of control and 151 % of control | dose: 32.0 mg/kg/injection, schedule: Q07DX003 (sc), vehicle: saline 155 % of control and 158 % of control | dose: 40.0 mg/kg/injection, schedule: Q04DX003 (sc), vehicle: saline 160 % of control and 181 % of control | dose: 62.0 mg/kg/injection, schedule: Q07DX003 (sc), vehicle: saline 175 % of control and 176 % of control | dose: 78.0 mg/kg/injection, schedule: Q07DX003 (sc), vehicle: saline 180 % of control and 181 % of control | dose: 191.0 mg/kg/injection, schedule: Q07DX003 (sc), vehicle: saline 150 % of control
